Measurements from ChEMBL document CHEMBL5321237 (Eur J Med Chem, 2023).

What was measured:
[1] = target: Platelet-derived growth factor receptor beta (Homo sapiens) (UniProt P09619); experiment: Inhibition of human PDGFRbeta binding to streptavidin-coated magnetic beads immobilized biotinylated ligand at 500 nM incubated for 1 hr by qPCR analysis relative to control
[2] = target: T1, Macrophage colony-stimulating factor 1 receptor (Mus musculus) (UniProt P09581); experiment: Inhibition of CSF1-induced CSF1R signalling in mouse BMDM cells assessed as reduction in ERK1/2 phosphorylation by measuring fold change preincubated for 30 mins followed by CSF1 addition and measured after 10 mins relative to pexidartinib; assay type: cell-based; conditions: time 40.0 min
T1 sequence (whole entry): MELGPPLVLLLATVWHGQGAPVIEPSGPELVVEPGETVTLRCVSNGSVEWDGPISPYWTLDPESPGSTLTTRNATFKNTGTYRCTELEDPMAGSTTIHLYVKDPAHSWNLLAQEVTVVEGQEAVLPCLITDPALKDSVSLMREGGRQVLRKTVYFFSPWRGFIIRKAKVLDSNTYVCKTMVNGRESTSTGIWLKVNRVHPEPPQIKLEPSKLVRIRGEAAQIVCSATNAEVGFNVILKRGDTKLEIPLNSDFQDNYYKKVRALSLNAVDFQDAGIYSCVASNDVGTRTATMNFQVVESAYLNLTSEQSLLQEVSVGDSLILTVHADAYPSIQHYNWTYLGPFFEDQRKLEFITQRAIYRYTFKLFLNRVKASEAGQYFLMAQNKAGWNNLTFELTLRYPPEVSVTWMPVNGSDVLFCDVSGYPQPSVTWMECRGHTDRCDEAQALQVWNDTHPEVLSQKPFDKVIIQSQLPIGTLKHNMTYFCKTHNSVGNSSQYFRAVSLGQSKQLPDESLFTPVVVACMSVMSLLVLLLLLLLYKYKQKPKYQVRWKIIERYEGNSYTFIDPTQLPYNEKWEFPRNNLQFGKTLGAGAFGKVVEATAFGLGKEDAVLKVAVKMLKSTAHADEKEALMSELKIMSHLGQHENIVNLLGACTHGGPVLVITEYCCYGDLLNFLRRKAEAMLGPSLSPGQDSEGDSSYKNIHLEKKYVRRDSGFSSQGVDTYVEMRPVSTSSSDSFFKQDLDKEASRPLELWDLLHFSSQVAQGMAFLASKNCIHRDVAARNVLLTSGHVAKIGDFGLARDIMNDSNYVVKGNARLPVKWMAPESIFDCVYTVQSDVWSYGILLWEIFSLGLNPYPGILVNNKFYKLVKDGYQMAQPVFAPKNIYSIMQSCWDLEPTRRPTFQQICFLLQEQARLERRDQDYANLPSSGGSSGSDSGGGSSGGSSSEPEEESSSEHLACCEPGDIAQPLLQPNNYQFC

[3] = system: T2, Receptor-type tyrosine-protein kinase FLT3 (Homo sapiens), P36888 [D835V]; experiment: Competitive binding affinity to human FLT3 D835V mutant at 500 nM incubated for 1 hr by qPCR analysis relative to control
T2 sequence (whole entry): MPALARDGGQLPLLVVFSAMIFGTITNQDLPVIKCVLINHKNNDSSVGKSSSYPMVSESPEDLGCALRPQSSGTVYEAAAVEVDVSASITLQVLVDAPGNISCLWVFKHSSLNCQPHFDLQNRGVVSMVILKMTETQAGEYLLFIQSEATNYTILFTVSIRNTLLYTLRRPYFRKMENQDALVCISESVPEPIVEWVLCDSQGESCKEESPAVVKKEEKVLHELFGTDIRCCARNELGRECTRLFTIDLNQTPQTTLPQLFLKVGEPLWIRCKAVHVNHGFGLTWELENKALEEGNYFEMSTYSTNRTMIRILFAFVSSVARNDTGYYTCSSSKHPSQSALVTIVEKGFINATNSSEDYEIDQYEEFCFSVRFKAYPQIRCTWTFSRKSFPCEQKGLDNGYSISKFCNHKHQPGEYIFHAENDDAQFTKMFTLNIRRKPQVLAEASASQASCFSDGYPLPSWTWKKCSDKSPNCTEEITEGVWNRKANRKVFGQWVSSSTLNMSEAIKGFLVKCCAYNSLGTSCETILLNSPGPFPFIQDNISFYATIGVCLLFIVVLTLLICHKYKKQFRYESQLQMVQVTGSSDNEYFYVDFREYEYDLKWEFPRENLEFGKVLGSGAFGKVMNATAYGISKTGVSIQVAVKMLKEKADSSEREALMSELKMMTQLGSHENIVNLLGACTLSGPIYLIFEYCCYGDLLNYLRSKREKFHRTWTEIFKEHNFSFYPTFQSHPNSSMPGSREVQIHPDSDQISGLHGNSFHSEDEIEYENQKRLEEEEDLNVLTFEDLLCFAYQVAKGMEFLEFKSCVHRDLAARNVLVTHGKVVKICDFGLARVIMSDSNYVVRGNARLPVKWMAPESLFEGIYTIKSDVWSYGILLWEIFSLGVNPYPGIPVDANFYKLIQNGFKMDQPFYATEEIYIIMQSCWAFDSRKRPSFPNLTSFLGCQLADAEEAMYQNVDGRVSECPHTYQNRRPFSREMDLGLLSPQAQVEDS

Platelet-derived growth factor receptor beta (Homo sapiens), sequence (P09619 whole entry): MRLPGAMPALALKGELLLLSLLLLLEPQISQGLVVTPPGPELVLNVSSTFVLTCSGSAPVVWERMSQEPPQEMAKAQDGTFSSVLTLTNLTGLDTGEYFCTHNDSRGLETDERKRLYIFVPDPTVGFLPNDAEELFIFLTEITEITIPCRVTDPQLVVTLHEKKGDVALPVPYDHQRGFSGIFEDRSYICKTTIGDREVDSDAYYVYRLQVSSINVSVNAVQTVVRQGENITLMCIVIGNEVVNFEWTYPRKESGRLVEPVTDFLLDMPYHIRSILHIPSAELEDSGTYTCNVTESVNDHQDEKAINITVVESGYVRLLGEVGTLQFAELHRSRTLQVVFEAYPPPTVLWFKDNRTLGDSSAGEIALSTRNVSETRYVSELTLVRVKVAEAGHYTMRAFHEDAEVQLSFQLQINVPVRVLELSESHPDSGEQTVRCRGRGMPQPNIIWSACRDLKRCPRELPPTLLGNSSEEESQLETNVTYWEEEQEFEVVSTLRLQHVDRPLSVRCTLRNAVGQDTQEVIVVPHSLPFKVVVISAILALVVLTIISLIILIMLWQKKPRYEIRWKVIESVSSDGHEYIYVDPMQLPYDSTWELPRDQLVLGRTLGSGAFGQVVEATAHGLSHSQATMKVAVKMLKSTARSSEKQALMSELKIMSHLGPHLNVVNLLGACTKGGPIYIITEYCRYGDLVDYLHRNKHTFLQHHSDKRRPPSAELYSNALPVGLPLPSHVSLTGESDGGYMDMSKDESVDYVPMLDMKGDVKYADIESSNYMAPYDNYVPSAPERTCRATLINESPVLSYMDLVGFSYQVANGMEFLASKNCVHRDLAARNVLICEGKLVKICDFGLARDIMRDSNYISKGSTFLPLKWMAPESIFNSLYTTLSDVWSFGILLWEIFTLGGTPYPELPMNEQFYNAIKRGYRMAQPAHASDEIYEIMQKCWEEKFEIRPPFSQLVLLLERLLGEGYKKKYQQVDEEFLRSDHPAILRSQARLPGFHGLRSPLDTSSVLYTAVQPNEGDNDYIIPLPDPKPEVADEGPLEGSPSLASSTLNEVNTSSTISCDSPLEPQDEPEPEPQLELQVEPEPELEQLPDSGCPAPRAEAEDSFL

inhibition [1]: 12%
fold change (FC) [2]: 0.4
Activity [3]: 92%
Structure (SMILES): CN(CC1CCCC1)c1ncnc2[nH]c(-c3ccc(CO)cc3)nc12
